Experimental data: PubChem BioAssay (NCI)
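Step 1: Grow cells in 96-well plates. Step 2: Expose to compound for 48 hours at 5 concentrations. Step 3: Interpolate endpoints linearly; if unreached, use highest concentration. TGI is the concentration that stops growth completely.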

Columns and labels:
Assay in all cases: NCI anticancer screen, dose series, 48 h
DU-145 prostate = test system: DU-145 prostate
EKVX NSCLC = test system: EKVX NSCLC
NCI-H522 lung = test system: NCI-H522 lung
SK-MEL-5 melanoma = test system: SK-MEL-5 melanoma
TK-10 renal = test system: TK-10 renal
UACC-62 melanoma = test system: UACC-62 melanoma
CCRF-CEM leukemia = test system: CCRF-CEM leukemia
K-562 leukemia = test system: K-562 leukemia
MCF7 breast = test system: MCF7 breast
MDA-MB-231 breast = test system: MDA-MB-231 breast

SMILES | TGI (DU-145 prostate) | TGI (EKVX NSCLC) | TGI (NCI-H522 lung) | TGI (SK-MEL-5 melanoma) | TGI (TK-10 renal) | TGI (UACC-62 melanoma) | TGI (CCRF-CEM leukemia) | TGI (K-562 leukemia) | TGI (MCF7 breast) | TGI (MDA-MB-231 breast)
CCn1nc(C)c2c1C(=O)NCC(=O)N2 | > 100 µM | > 100 µM | > 100 µM | > 100 µM | > 100 µM | > 100 µM |  |  |  | 
COC1CC(N)(c2ccccc2)C(O)C(C)O1 (configuration not stated) | > 100 µM | > 100 µM | > 100 µM | > 100 µM |  | > 100 µM | > 100 µM | > 100 µM | > 100 µM | > 100 µM
CC(N=NNc1ccc(-c2nc3ccccc3[nH]2)cc1)C(=O)O (configuration not stated) | > 100 µM | > 100 µM | 75.7 µM | > 100 µM | > 100 µM |  | > 100 µM | > 100 µM | 34.1 µM | > 100 µM
O=c1[nH]/c(=C/c2ccc(OCc3ccccc3)cn2)c(=O)[nH]/c1=C/c1ccccc1 |  | > 100 µM |  |  | > 100 µM | > 100 µM |  | > 100 µM | > 100 µM | > 100 µM
Cc1ccc(C(=N)c2ccccc2Cc2cccc3ccccc23)c2ccccc12 | > 100 µM | > 100 µM | > 100 µM | > 100 µM | > 100 µM | > 100 µM | > 100 µM | > 100 µM | > 100 µM | > 100 µM
COc1cc(/C=C2\C(=O)N(c3cccc([N+](=O)[O-])c3)C(c3ccccc3)S2(=O)=O)cc(OC)c1OC (configuration not stated) | > 100 µM | > 100 µM | > 100 µM | > 100 µM | > 100 µM | > 100 µM | > 100 µM | > 100 µM | > 100 µM | > 100 µM
COc1ccc2c(c1)C(=O)CC1c3cnccc3C(=O)N21 (configuration not stated) | > 100 µM | > 100 µM | > 100 µM | > 100 µM | > 100 µM | > 100 µM |  | > 100 µM | > 100 µM | > 100 µM
CC(=O)NC1C(OCc2ccccc2)OC(CO)C(O)C1OCC(=O)N1CCCC1C(=O)N[C@@H](CCC(=O)NCCCCNc1c2ccccc2nc2cccc([N+](=O)[O-])c12)C(N)=O (some centres not stated) | > 100 µM | > 100 µM |  |  | > 100 µM |  |  | > 100 µM | 53.8 µM | 
CCCCCOc1ccc(C=Nc2ccc(CCc3ccc(N=Cc4ccc(OCCCCC)cc4)cc3)cc2)cc1 |  | > 100 µM | > 100 µM | > 100 µM |  | > 100 µM | > 100 µM | > 100 µM | > 100 µM | 
CC1CC[C@@]2(OC1)OC1C[C@H]3[C@@H]4CC=C5CC(OC6OC(CO)C(OC7OC(CO)C(O)C(OC8OCC(O)C(O)C8O)C7OC7OC(CO)C(OC8OC(C)C(OC9OC(C)C(O)C(O)C9O)C(O)C8O)C(O)C7O)C(O)C6O)CCC5(C)[C@H]4CCC3(C)C1[C@@H]2C (some centres not stated) | 15.9 µM | 15.3 µM | 16.8 µM | 15.8 µM | 15.8 µM | 17.7 µM | 21.9 µM | 19.6 µM | 26.8 µM | 11.9 µM
c1ccc(-c2csc3c4ccccc4c4ccccc4[n+]23)cc1 |  | 31.8 µM | 7.12 µM | 2.86 µM | 43.6 µM | 5.27 µM | > 38.5 µM | > 30.7 µM |  | 
CC1=NNC(=O)C1C1C(=O)NN=C(c2c[nH]c3ccccc23)C1Br (configuration not stated) | > 100 µM | > 100 µM | 92.4 µM | > 100 µM | > 100 µM | > 100 µM | 65.5 µM | > 100 µM |  | > 100 µM
